Read-outs that look alike come from different tables or passages of the source.
Experiments:
Experiment in all cases: Test A pre/postemergence
Type in all cases: in vivo
[1] = system: velvetleaf (Abutilon theophrasti); details: for pest or weed control at 125 g/ha / pest or weed control at 500 g/ha: Abutilon theophrasti, 240 h, read-out: Plant response rating, Velvetleaf
Summary of the method: (§1)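 Compared with untreated controls, treated plants were visually rated for injury on a 0 (none) to 100 (complete control) scale about ten days after spraying. Pre- and postemergence applications used one solvent/surfactant formulation; postemergence plants measured 2–10 cm.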

[2] = system: morningglory (Ipomoea spp.); details: for pest or weed control at 125 g/ha / pest or weed control at 500 g/ha: Ipomoea, 240 h, read-out: Plant response rating, Morningglory
Summary of the method: as §1

[3] = system: redroot pigweed (Amaranthus retroflexus); details: for pest or weed control at 125 g/ha / pest or weed control at 500 g/ha: Amaranthus retroflexus, 240 h, read-out: Plant response rating, Pigweed
Summary of the method: as §1

[4] = system: crabgrass (Digitaria sanguinalis); details: for pest or weed control at 125 g/ha / pest or weed control at 500 g/ha: Digitaria sanguinalis, 240 h, read-out: Plant response rating, Crabgrass
Summary of the method: as §1

[5] = post-emergence, Postemergence, 125 g ai/ha, 0 to 100 scale (0 no effect, 100 complete control)
[6] = post-emergence, Postemergence, 500 g ai/ha, 0 to 100 scale (0 no effect, 100 complete control)
[7] = pre-emergence, Preemergence, 125 g ai/ha, 0 to 100 scale where 0 is no effect and 100 is complete control, approximately ten days
[8] = pre-emergence, Preemergence, 500 g ai/ha, 0 to 100 scale where 0 is no effect and 100 is complete control, approximately ten days
[9] = Postemergence, 125 g ai/ha, 0 to 100 scale (0 no effect, 100 complete control)
[10] = Postemergence, 500 g ai/ha, 0 to 100 scale (0 no effect, 100 complete control)
[11] = Preemergence, 125 g ai/ha, 0 to 100 scale where 0 is no effect and 100 is complete control, approximately ten days
[12] = Preemergence, 500 g ai/ha, 0 to 100 scale where 0 is no effect and 100 is complete control, approximately ten days

Compound	pest or weed control at 125 g/ha [1, 5] [%]	pest or weed control at 500 g/ha [1, 6] [%]	pest or weed control at 125 g/ha [1, 7] [%]	pest or weed control at 500 g/ha [1, 8] [%]	Plant response rating, Velvetleaf [1, 9]	Plant response rating, Velvetleaf [1, 10]	Plant response rating, Velvetleaf [1, 11]	Plant response rating, Velvetleaf [1, 12]	Plant response rating, Morningglory [2, 9]	Plant response rating, Morningglory [2, 10]	Plant response rating, Morningglory [2, 11]	Plant response rating, Morningglory [2, 12]	Plant response rating, Pigweed [3, 9]	Plant response rating, Pigweed [3, 10]	Plant response rating, Pigweed [3, 11]	Plant response rating, Pigweed [3, 12]	Plant response rating, Crabgrass [4, 9]	Plant response rating, Crabgrass [4, 10]	Plant response rating, Crabgrass [4, 11]	Plant response rating, Crabgrass [4, 12]	further results
COC(=O)c1nc(C2CC2)nc(N)c1OC [Compound 59]	60	85	10	45																	pest or weed control at 125 g/ha [2, 5]: 90%; pest or weed control at 500 g/ha [2, 6]: 100%; pest or weed control at 125 g/ha [2, 7]: 80%; pest or weed control at 500 g/ha [2, 8]: 100%; pest or weed control at 125 g/ha [3, 5]: 60%; pest or weed control at 500 g/ha [3, 6]: 80%; pest or weed control at 125 g/ha [3, 7]: 20%; pest or weed control at 500 g/ha [3, 8]: 70%; pest or weed control at 125 g/ha [4, 5]: 0%; pest or weed control at 500 g/ha [4, 6]: 10%; pest or weed control at 125 g/ha [4, 7]: 0%; pest or weed control at 500 g/ha [4, 8]: 0%
Nc1nc(C2CC2)nc(C(=O)O)c1Cl [Compound 135, 6-amino-5-chloro-2-cyclopropyl-4-pyrimidinecarboxylic acid]					85	100	80	100	90	100	95	100	90	95	85	100	65	65	75	95	
Nc1nc(-c2ccc(Cl)cc2)nc(C(=O)[O-])c1Cl.[Na+] [Compound 117]					100	100	55	100	90	90	10	85	100	100	65	100	75	90	45	75	
Nc1nc(C2CC2)nc(C(=O)[O-])c1Cl.[Na+] [Compound 77, 6-amino-5-chloro-2-cyclopropyl-4-pyrimidinecarboxylic acid monosodium salt]	95	100	100	100														90			pest or weed control at 125 g/ha [2, 5]: 95%; pest or weed control at 500 g/ha [2, 6]: 100%; pest or weed control at 125 g/ha [2, 7]: 100%; pest or weed control at 500 g/ha [2, 8]: 100%; pest or weed control at 125 g/ha [3, 5]: 95%; pest or weed control at 500 g/ha [3, 6]: 95%; pest or weed control at 125 g/ha [3, 7]: 85%; pest or weed control at 500 g/ha [3, 8]: 95%; pest or weed control at 125 g/ha [4, 5]: 70%; pest or weed control at 125 g/ha [4, 7]: 70%; pest or weed control at 500 g/ha [4, 8]: 80%
CCCOC(=O)c1nc(C2CC2)nc(N)c1Cl [Compound 75]					85	100	80	95	90	90	95	100	90	100	90	95	80	90	85	90	
